How the values were obtained:
E-tag antibody = experiment: ELISA analysis of phage on antibody raised against ETAG (positive control); conditions: peptide binding to E-tag antibody; phage ELISA units read at 405 nm
In short: (§1)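 Phage from picked clones (M13KO7 helper) bound 2 hr at room temperature to wells coated overnight at 4 °C with 500 ng/well anti-ETAG antibody or LDH, milk-blocked. Detection with HRP-anti-M13 (1:3000) and ABTS at 405 nm; positive when A405 ≥2-fold over background.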

[1] = tested on: lactate dehydrogenase (LDH); experiment: ELISA analysis of phage on LDH (irrelevant, non-specific target); type: binding; conditions: peptide binding to LDH polypeptide (non-specific binding); phage ELISA units read at 405 nm
In short: as §1

DGI-2 = biological target: T1, DGI-2 (Homo sapiens, UniProt Q15004); experiment: ELISA analysis of phage on DGI-2 polypeptide (specific binding); conditions: for DGI-2 (OD): binding to DGI-2 polypeptide (specific binding), phage ELISA units read at 405 nm; for DGI-2/LDH (OD): ratio of specific binding to non-specific binding
T1 construct: encompassed the entire DGI-2 open reading frame (ORF); His-tag of vector pIVEX2.3-MCS (inferred from the vector and from the reverse primer lacking a stop codon); made in house; host or cells: cell-free in vitro translation (Rapid Translation System RTS, Roche; E. coli lysate)
T1 sequence (Q15004 1-111): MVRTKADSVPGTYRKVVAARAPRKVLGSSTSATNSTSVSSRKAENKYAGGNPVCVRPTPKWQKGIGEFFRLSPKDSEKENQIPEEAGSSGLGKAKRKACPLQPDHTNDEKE
In short: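 Recombinant DGI-2 from in vitro translation, LDH (non-specific) and controls were coated at 500 ng/well and blocked with 2% milk-PBS. Phage from individual clones bound for 2 hr at room temperature, then anti-M13-HRP with ABTS was read at 405 nm; a clone counted as positive at ≥2-fold over background.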

VSGVPDGSMRAAQLASGYWC (DGI-2-20F-PP-G2; listed as Escherichia coli)
ETAG (OD) (E-tag antibody): 5.6 OD
LDH (OD) [1]: 1.1 OD
DGI-2 (OD) (DGI-2): 2.4 OD
DGI-2/LDH (OD) (DGI-2): 2.1

VSGY#SLWWCGPGWGPRSGR (VSGYSLWWCGPGWGPRSGR; DGI-2-20F-PP-H11; listed as Escherichia coli)
ETAG (OD) (E-tag antibody): 2.1 OD
LDH (OD) [1]: 0.8 OD
DGI-2 (OD) (DGI-2): 1.6 OD
DGI-2/LDH (OD) (DGI-2): 2.0

VTGTRFRGFAVACVRMGTWH (DGI-2-20F-PP-F2; listed as Escherichia coli)
ETAG (OD) (E-tag antibody): 1.9 OD
LDH (OD) [1]: 1.0 OD
DGI-2 (OD) (DGI-2): 2.4 OD
DGI-2/LDH (OD) (DGI-2): 2.5

VVGYAQGDGLEGGLGSSRDGS (DGI-2-20F-PP-D8; listed as Escherichia coli)
ETAG (OD) (E-tag antibody): 2.6 OD
LDH (OD) [1]: 1.1 OD
DGI-2 (OD) (DGI-2): 2.3 OD
DGI-2/LDH (OD) (DGI-2): 2.2

VVHTRAWGSWAYGFVLRNRG (DGI-2-20F-PP-F10; listed as Escherichia coli)
ETAG (OD) (E-tag antibody): 42.5 OD
LDH (OD) [1]: 1.3 OD
DGI-2 (OD) (DGI-2): 3.5 OD
DGI-2/LDH (OD) (DGI-2): 2.8

VVRQGCMAFSGLCSGVTESE (DGI-2-20R-3-C8; listed as Escherichia coli)
ETAG (OD) (E-tag antibody): 21.1 OD
LDH (OD) [1]: 1.1 OD
DGI-2 (OD) (DGI-2): 5.6 OD
DGI-2/LDH (OD) (DGI-2): 5.3

VWAAWVEGSLLSPRQEPVRD (DGI-2-20R-4-G4; listed as Escherichia coli)
ETAG (OD) (E-tag antibody): 13.6 OD
LDH (OD) [1]: 1.0 OD
DGI-2 (OD) (DGI-2): 10.2 OD
DGI-2/LDH (OD) (DGI-2): 9.8

VWRDWVNGTVGLRNREKPGV (DGI2-20R-3-A5; listed as Escherichia coli) [DGI-2-20R-3-A5]
ETAG (OD) (E-tag antibody): 14.9 OD
LDH (OD) [1]: 1.1 OD
DGI-2 (OD) (DGI-2): 10.9 OD
DGI-2/LDH (OD) (DGI-2): 9.8

WAASCFWGHVALGCGRNGQG (DGI-2-20R-3-A11; listed as Escherichia coli)
ETAG (OD) (E-tag antibody): 14.7 OD
LDH (OD) [1]: 1.1 OD
DGI-2 (OD) (DGI-2): 6.2 OD
DGI-2/LDH (OD) (DGI-2): 5.7

WAGSTDLWQLWSLWVKPELR (DGI-2-20F-3-B7; listed as Escherichia coli)
ETAG (OD) (E-tag antibody): 16.4 OD
LDH (OD) [1]: 0.9 OD
DGI-2 (OD) (DGI-2): 1.6 OD
DGI-2/LDH (OD) (DGI-2): 1.6

WEVGQVEKFSRGVGGWWPTG [DGI-2-20R-3-D3]
ETAG (OD) (E-tag antibody): 16.8 OD
LDH (OD) [1]: 1.0 OD
DGI-2 (OD) (DGI-2): 8.3 OD
DGI-2/LDH (OD) (DGI-2): 8.3

WFTHVVEKIF [DGI-2-40F-3-A4]
ETAG (OD) (E-tag antibody): 6.7 OD
LDH (OD) [1]: 0.8 OD
DGI-2 (OD) (DGI-2): 1.1 OD
DGI-2/LDH (OD) (DGI-2): 1.3

WGCVFRQWASGSGAGCARRH (DGI-2-20R-3-D9; listed as Escherichia coli)
ETAG (OD) (E-tag antibody): 19.7 OD
LDH (OD) [1]: 1.0 OD
DGI-2 (OD) (DGI-2): 6.7 OD
DGI-2/LDH (OD) (DGI-2): 6.4

WRARSSGYLFALTPNFGVPHIPSSALRRMH.GLMARDLRPV [DGI-2-40F-3-C10]
ETAG (OD) (E-tag antibody): 7.7 OD
LDH (OD) [1]: 0.9 OD
DGI-2 (OD) (DGI-2): 1.1 OD
DGI-2/LDH (OD) (DGI-2): 1.3

From patent US7056679B2, “Target specific screening and its use for identifying target binders” (Antyra, Inc., priority 2001, dated 2006)
